Laboratory results taken from patent publication US20240425491A1, “HETEROARYL COMPOUNDS USEFUL IN THE TREATMENT OF COGNITIVE DISORDERS” (University College Cardiff Consultants Limited, priority 2021, published 2024).
Structures can show the parent of a compound that is named as a salt.

Biological target: T1, human recombinant GABAAR containing α5β3γ2 subunits (benzodiazepine site) (Homo sapiens, UniProt P18507+P31644)
T1 construct: expressed in transfected cells; host or cells: mouse L(tk−) cells, dexamethasone-inducible vector pMSGneo
Test: In vitro radioligand binding assay (α5-GABAAR Ki)
Conditions: inhibition of [3H]Ro15-1788 binding, membranes of L(tk−) cells expressing human α5β3γ2; read-out: α5-GABAAR Ki
Excerpt: Mouse L(tk^−) cells stably expressing human α1β3γ2, α2β3γ2, α3β3γ2, α5β3γ2 GABAARs generated by transfection of the individual subunits in the dexamethasone-inducible expression vector pMSGneo in mouse L(tk^−) cells (Hadingham et al., 1993, Mol. Pharmacol. 43:970-975 and 1993, Mol. Pharmacol. 44:1211-1218) were used for binding and functional assays. For certain compounds, HEK293 cells stable expressing the human α1β3γ2L, α2β3γ2L, α3β3γ2L and α5β3γ2L GABAA receptors were used to evaluate their functional effects in a SyncroPatch electrophysiology assay.
L(tk^−) cells stably expressing human α1β3γ2, α2β3γ2, α3β3γ2, α5β3γ2 GABAARs were maintained in DMEM F12 medium supplemented with 10% Foetal Bovine Serum, 1% Penicillin/Streptomycin and 1 mg/mL Geneticin G418 in an incubator at 37° C. with a humidified atmosphere with 5% CO2.
The affinity (Ki) of compounds for the benzodiazepine site of human recombinant GABAARs was measured by their ability to inhibit the binding of the selective benzodiazepine antagonist [^3H] Ro15-1788 ([^3H] flumazenil).
L(tk^−) cells expressing human recombinant GABAAR containing α1β3γ2, α2β3γ2, α3β3γ2, α5β3γ2 subunits were harvested and membranes were prepared for each receptor combination in phosphate buffer (K2PO4 10 mM, pH 7.0) (Hadingham et al. (1992) Proc. Natl. Acad. Sci. USA; 89 (14): 6378-82). Protein concentration, receptor expression and the Kd of [^3H] Ro15-1788 were determined before Ki values of compounds were evaluated. For Kd evaluation, saturation binding curves were obtained by incubating membrane with various concentrations of [^3H] Ro15-1788 (82.5 Ci/mM), with nonspecific binding measured in the presence of 1 μM TP003.
For Ki evaluation, cell membranes were incubated with 4 nM [^3H] Ro15-1788 along with a range of concentrations of test compound. Nonspecific binding was determined using 1 μM TP003. All incubations were performed for 1 hour at 4° C. in assay buffer. The total assay volume was 0.5 mL, containing 100 μg membrane protein/well α1β3γ2, α2β3γ2, α3β3γ2 and 50 μg membrane protein/well for α53γ2. Incubations were terminated by filtration and washing with ice cold Tris-HCl buffer (50 mM, pH=7.4) over Whatman GF/B filters and the radioactivity of the filters was measured using liquid scintillation counting.
The % inhibition of [^3H] Ro15-1788 binding was plotted as a function of compound concentration and the IC50 calculated. From the IC50, the affinity (Ki) was calculated using the method of Cheng and Prusoff using the Kd values obtained for [^3H] Ro15-1788.

T1 sequence (P31644 32-462): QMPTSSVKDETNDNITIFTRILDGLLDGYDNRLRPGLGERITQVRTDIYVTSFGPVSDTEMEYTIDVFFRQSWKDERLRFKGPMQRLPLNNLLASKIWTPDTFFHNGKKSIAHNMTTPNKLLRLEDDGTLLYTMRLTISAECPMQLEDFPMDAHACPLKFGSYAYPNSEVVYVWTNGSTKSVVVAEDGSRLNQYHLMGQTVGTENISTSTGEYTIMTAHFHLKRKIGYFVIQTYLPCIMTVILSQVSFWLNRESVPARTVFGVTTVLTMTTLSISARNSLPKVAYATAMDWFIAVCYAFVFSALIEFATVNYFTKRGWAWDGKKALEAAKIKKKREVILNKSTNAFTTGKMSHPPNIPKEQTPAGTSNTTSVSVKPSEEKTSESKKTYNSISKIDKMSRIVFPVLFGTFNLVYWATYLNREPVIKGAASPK
T1 sequence (P28472 26-473 partner): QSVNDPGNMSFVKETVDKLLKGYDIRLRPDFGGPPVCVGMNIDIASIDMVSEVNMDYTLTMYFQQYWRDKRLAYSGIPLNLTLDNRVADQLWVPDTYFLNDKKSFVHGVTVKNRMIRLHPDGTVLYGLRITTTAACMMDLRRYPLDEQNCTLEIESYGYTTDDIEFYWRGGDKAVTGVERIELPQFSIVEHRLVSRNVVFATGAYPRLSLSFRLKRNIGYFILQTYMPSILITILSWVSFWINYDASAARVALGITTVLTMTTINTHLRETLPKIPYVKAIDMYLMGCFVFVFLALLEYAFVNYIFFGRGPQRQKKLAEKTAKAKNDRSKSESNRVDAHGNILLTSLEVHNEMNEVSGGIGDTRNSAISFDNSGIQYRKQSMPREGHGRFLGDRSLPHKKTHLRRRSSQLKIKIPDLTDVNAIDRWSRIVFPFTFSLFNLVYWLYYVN
T1 sequence (P18507 40-475): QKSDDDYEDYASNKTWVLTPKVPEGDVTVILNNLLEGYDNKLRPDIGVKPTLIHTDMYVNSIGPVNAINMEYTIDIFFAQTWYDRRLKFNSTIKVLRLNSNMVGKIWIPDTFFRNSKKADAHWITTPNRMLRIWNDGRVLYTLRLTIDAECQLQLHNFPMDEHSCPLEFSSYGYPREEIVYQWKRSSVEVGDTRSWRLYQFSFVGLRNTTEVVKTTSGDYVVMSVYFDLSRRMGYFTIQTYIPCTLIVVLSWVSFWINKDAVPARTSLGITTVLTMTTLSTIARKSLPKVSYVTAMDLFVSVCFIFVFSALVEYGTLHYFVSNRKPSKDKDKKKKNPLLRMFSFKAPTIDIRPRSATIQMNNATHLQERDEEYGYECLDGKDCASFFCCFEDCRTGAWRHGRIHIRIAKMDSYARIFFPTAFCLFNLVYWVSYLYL

Row | SMILES | Ki [µM]
1 | COc1nc(-c2ccc3c(=O)[nH]ncc3c2)ccc1NC(=O)c1c(-c2ccccc2)noc1C [Example 117, N-(2-Methoxy-6-(1-oxo-1,2-dihydrophthalazin-6-yl)pyridin-3-yl)-5-methyl-3-phenylisoxazole-4-carboxamide] | 0.0026
2 | COc1nc(-c2cnc3[nH]ccc3c2)ccc1NC(=O)c1c(-c2ccccc2)noc1C [Example 118, N-(2-Methoxy-6-(1H-pyrrolo[2,3-b]pyridin-5-yl)pyridin-3-yl)-5-methyl-3-phenylisoxazole-4-carboxamide] | 0.137
3 | COc1nc(-c2nn[nH]n2)ccc1NC(=O)c1c(-c2ccccc2)noc1C [Example 122, N-[2-Methoxy-6-(2H-tetrazol-5-yl)-3-pyridyl]-5-methyl-3-phenyl-isoxazole-4-carboxamide] | 0.126
4 | CCOC(=O)Cn1c(-c2ccc(NC(=O)c3c(-c4ccccc4)noc3C)c(OC)n2)cnc1C [Example 134, Ethyl 2-[5-[6-methoxy-5-[(5-methyl-3-phenyl-isoxazole-4-carbonyl)amino]-2-pyridyl]-2-methyl-imidazol-1-yl] acetate] | 0.0519
5 | COc1nc(-n2ccnc2)ccc1NC(=O)c1c(-c2ccccn2)noc1C [Example 146, N-(6-Imidazol-1-yl-2-methoxy-3-pyridyl)-5-methyl-3-(2-pyridyl) isoxazole-4-carboxamide] | 0.079
6 | COc1nc(-c2cncnc2)ccc1NC(=O)c1c(C)nnn1-c1ccccc1 [Example 157, N-(2-Methoxy-6-(pyrimidin-5-yl)pyridin-3-yl)-4-methyl-1-phenyl-1H-1,2,3-triazole-5-carboxamide] | 0.0458
7 | COc1nc(-c2cncc(OC(F)F)c2)cnc1NC(=O)c1c(-c2ccccc2)noc1C [Example 158, N-[5-[5-(Difluoromethoxy)-3-pyridyl]-3-methoxy-pyrazin-2-yl]-5-methyl-3-phenyl-isoxazole-4-carboxamide] | 0.0084
8 | CNc1nc(-n2ccnc2)ccc1NC(=O)c1c(-c2ccccc2)noc1C [Example 177, N-(6-(1H-Imidazol-1-yl)-2-(methylamino)pyridin-3-yl)-5-methyl-3-phenylisoxazole-4-carboxamide] | 0.545
9 | COc1nc(-c2ccc(CN)cc2)ccc1NC(=O)c1c(-c2ccccc2)noc1C [Example 182, N-[6-[4-(Aminomethyl)phenyl]-2-methoxy-3-pyridyl]-5-methyl-3-phenyl-isoxazole-4-carboxamide hydrochloride] | 0.0088
10 | COc1ncc(-c2ccc(NC(=O)c3c(-c4ccccc4)noc3C)c(OC)n2)c(C)n1 [Example 191, N-[2-Methoxy-6-(2-methoxy-4-methyl-pyrimidin-5-yl)-3-pyridyl]-5-methyl-3-phenyl-isoxazole-4-carboxamide] | 0.0013
11 | CNc1ncc(-c2ccc(NC(=O)c3c(-c4ccccc4)noc3C)c(OC)n2)c(C)n1 [Example 192, N-[2-Methoxy-6-[4-methyl-2-(methylamino)pyrimidin-5-yl]-3-pyridyl]-5-methyl-3-phenyl-isoxazole-4-carboxamide] | 0.0012
12 | COc1nc(C)c(-c2ccc(NC(=O)c3c(-c4ccccc4)noc3C)c(OC)n2)c(C)n1 [Example 193, N-[2-Methoxy-6-(2-methoxy-4,6-dimethyl-pyrimidin-5-yl)-3-pyridyl]-5-methyl-3-phenyl-isoxazole-4-carboxamide] | 0.0229
13 | CNc1nc(C)c(-c2ccc(NC(=O)c3c(-c4ccccc4)noc3C)c(OC)n2)c(C)n1 [Example 194, N-(6-(4,6-Dimethyl-2-(methylamino)pyrimidin-5-yl)-2-methoxypyridin-3-yl)-5-methyl-3-phenylisoxazole-4-carboxamide] | 0.0387
14 | COc1nc(-c2nnc3n2CCN(C)C3)ccc1NC(=O)c1c(-c2ccccc2)noc1C [Example 195, N-(2-Methoxy-6-(7-methyl-5,6,7,8-tetrahydro-[1,2,4]triazolo[4,3-a]pyrazin-3-yl)pyridin-3-yl)-5-methyl-3-phenylisoxazole-4-carboxamide] | 0.0235
15 | COc1cc(-c2cnc(N)nc2)ccc1NC(=O)c1c(-c2ccccc2)noc1C [Example 197, N-[4-(2-Aminopyrimidin-5-yl)-2-methoxy-phenyl]-5-methyl-3-phenyl-isoxazole-4-carboxamide hydrochloride] | 0.0004
16 | COc1cc(-c2cnc(N)cn2)ccc1NC(=O)c1c(-c2ccccc2)noc1C [Example 198, N-[4-(5-Aminopyrazin-2-yl)-2-methoxy-phenyl]-5-methyl-3-phenyl-isoxazole-4-carboxamide hydrochloride] | 0.0043
17 | COc1nc(-c2cnc(C(C)(C)O)nc2)ccc1NC(=O)c1c(-c2ccccc2)noc1C [Example 201, N-[6-[2-(1-Hydroxy-1-methyl-ethyl)pyrimidin-5-yl]-2-methoxy-3-pyridyl]-5-methyl-3-phenyl-isoxazole-4-carboxamide] | 0.0354
18 | COc1nc(-c2cnc(CN)nc2)ccc1NC(=O)c1c(-c2ccccn2)nnn1C [Example 202, N-(6-(2-(Aminomethyl)pyrimidin-5-yl)-2-methoxypyridin-3-yl)-1-methyl-4-(pyridin-2-yl)-1H-1,2,3-triazole-5-carboxamide hydrochloride] | 0.0778
19 | COc1nc(-c2cnc(CN)nc2)ccc1NC(=O)c1c(-c2ccc(Cl)cn2)nnn1C [Example 203, N-(6-(2-(Aminomethyl)pyrimidine-5-yl)-2-methoxypyridin-3-yl)-4-(5-chloropyridin-2-yl)-1-methyl-1H-1,2,3-triazole-5-carboxamide hydrochloride] | 0.017
20 | COc1nc(-c2cnoc2)ccc1NC(=O)c1c(-c2ccc(F)cc2)noc1N1CCC1 [Example 210, 5-(Azetidin-1-yl)-3-(4-fluorophenyl)-N-(6-isoxazol-4-yl-2-methoxy-3-pyridyl) isoxazole-4-carboxamide] | 0.0137
21 | COc1nc(-c2cnc(CN)nc2)ccc1NC(=O)c1c(-c2ccc(F)cc2)noc1NCCCCl [Example 211, N-[6-[2-(Aminomethyl)pyrimidin-5-yl]-2-methoxy-3-pyridyl]-5-(3-chloropropylamino)-3-(4-fluorophenyl) isoxazole-4-carboxamide hydrochloride] | 0.0013
22 | Cc1onc(-c2ccccc2)c1C(=O)Nc1ccc(-n2ccnc2)[nH]c1=O [Example 212, N-(6-Imidazol-1-yl-2-oxo-1H-pyridin-3-yl)-5-methyl-3-phenyl-isoxazole-4-carboxamide] | 0.313
23 | COc1nc(-c2ccc(C=O)cc2)ccc1NC(=O)c1c(-c2ccccc2)noc1C [Example 220, N-[6-(4-formylphenyl)-2-methoxy-3-pyridyl]-5-methyl-3-phenyl-isoxazole-4-carboxamide] | 0.0034
24 | COc1nc(-c2ccc(CCl)cc2)ccc1NC(=O)c1c(-c2ccccc2)noc1C [Example 224, N-[6-[4-(chloromethyl)phenyl]-2-methoxy-3-pyridyl]-5-methyl-3-phenyl-isoxazole-4-carboxamide] | 0.22
25 | COc1nc(-c2ccc(CN3CCOCC3)cc2)ccc1NC(=O)c1c(-c2ccccc2)noc1C [Example 225, N-[2-methoxy-6-[4-(morpholinomethyl)phenyl]-3-pyridyl]-5-methyl-3-phenyl-isoxazole-4-carboxamide] | 0.0077
26 | COc1nc(-c2ccc(CN3CC4(COC4)C3)cc2)ccc1NC(=O)c1c(-c2ccccc2)noc1C [Example 226, N-[2-methoxy-6-[4-(2-oxa-6-azaspiro[3.3]heptan-6-ylmethyl)phenyl]-3-pyridyl]-5-methyl-3-phenyl-isoxazole-4-carboxamide] | 0.0033
27 | Cc1onc(-c2ccccc2)c1C(=O)Nc1ccc(-c2cnoc2)nc1OC(C)C [Example 227, N-(2-isopropoxy-6-(isoxazol-4-yl)pyridin-3-yl)-5-methyl-3-phenyl-isoxazole-4-carboxamide] | 0.0005
28 | COc1nc(-c2ccc(CN3CC4COCC4C3)cc2)ccc1NC(=O)c1c(-c2ccccc2)noc1C (stereo not shown) [Example 233, N-(2-methoxy-6-(4-((tetrahydro-1H-furo[3,4-c]pyrrol-5 (3H)-yl)methyl)phenyl)pyridin-3-yl)-5-methyl-3-phenylisoxazole-4-carboxamide] | 0.007
